Reference: paper PMC10945555, “Improving Activity of New Arylurea Agents against Multidrug-Resistant and Biofilm-Producing Staphylococcus epidermidis” (ACS Medicinal Chemistry Letters, 2024)

Test system: Staphylococcus epidermidis clinical strain no. 23
Assay: Cell membrane potential, DiOC2 flow cytometry
Type: cell-based
Conditions: 4 × MIC, within 15 min; MSSE, S. epidermidis clinical strain no. 23, S. aureus Newman
Source text: 23, and S. aureus Newman (reference strain without known antibiotic resistance determinants). Bacterial strains were stained with 3,3′-diethyloxacarbocyanine iodide (DiOC2) and then treated with the tested compound 25, with carbonyl cyanide 3-chlorophenylhydrazone (CCCP) used as a positive control. Daptomycin was used as a reference compound that causes depolarization of bacterial cell membranes.[22]
(reduction of navy blue resazurin to pink resorufin in the presence of metabolically active cells) compared to the negative (sterile medium without bacteria and compounds) and positive control (medium with bacteria).9 The minimal biofilm eradication concentration value was analyzed using a high throughput screening the MBEC Assay® Kit (Innovotech, Canada), formerly the Calgary Biofilm Device, according to the manufacturer's insert.10 […]
determining MBC (Minimal Bactericidal Concentration) values. […] Then, the value of the MBC/MIC ratio was calculated to assess its bactericidal or bacteriostatic activity. […]
using the BacLight™ Bacterial Membrane Potential Kit (Molecular Probes, Invitrogen, Carlsbad, CA, USA).15 Analysis of the cells was tested in an LSR II flow cytometer (BD Biosciences Immunocytometry Systems, San Jose, CA, USA) equipped with blue, red and violet lasers, using 488 nm excitation for green (530/30 BP filter, 505 LP) and red (610/20 BP, 600 LP) fluorescence. […]

O=C(Nc1cccc(Cl)c1)NC1CCN(CCC(Oc2ccc(C(F)(F)F)cc2)c2cccs2)CC1 (stereo not shown) [Compound 25]
membrane depolarization: depolarization in nearly all bacterial cells
